In the supplement of paper PMC10307832:

Columns and labels:
Assay in all cases: relative viability (nuclei count vs DMSO), 5 days (fraction); higher = more cells survive
BGJ398 + Tozasertib = compound: CCN1CCN(c2ccc(Nc3cc(N(C)C(=O)Nc4c(Cl)c(OC)cc(OC)c4Cl)ncn3)cc2)CC1 [BGJ398] + Cc1cc(Nc2cc(N3CCN(C)CC3)nc(Sc3ccc(NC(=O)C4CC4)cc3)n2)n[nH]1 [Tozasertib] (partner 0.1 µM)
Outline: (§1)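 Cells from lung cancer lines were seeded into 1536-well plates and, one day later, dosed by pin tool. Treatments were either a single drug or a fixed dose of an anchor drug with five library-drug doses (not always all listed) in √10 steps. After 5 days, nuclei were stained in a one-step fixation (final 0.05% Triton X-100, 1% formaldehyde, 1 ug/ml Hoechst) and counted on 4× images, and relative viability is the treated-to-vehicle nuclei ratio, as the median of duplicate plates.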

BGJ398 + Bortezomib = compound: CCN1CCN(c2ccc(Nc3cc(N(C)C(=O)Nc4c(Cl)c(OC)cc(OC)c4Cl)ncn3)cc2)CC1 [BGJ398] + CC(C)C[C@H](NC(=O)[C@H](Cc1ccccc1)NC(=O)c1cnccn1)B(O)O [Bortezomib] (partner 0.002 µM)
Outline: as §1

BGJ398 + Pemetrexed = compound: CCN1CCN(c2ccc(Nc3cc(N(C)C(=O)Nc4c(Cl)c(OC)cc(OC)c4Cl)ncn3)cc2)CC1 [BGJ398] + Nc1nc2[nH]cc(CCc3ccc(C(=O)N[C@@H](CCC(=O)O)C(=O)O)cc3)c2c(=O)[nH]1 [Pemetrexed] (partner 0.2 µM)
Outline: as §1

[1] = compound: C1=CC2=NC=CN=C2C=C1/C=C/3\C(=O)NC(=O)S3 + Cc1nc(Nc2ncc(C(=O)Nc3c(C)cccc3Cl)s2)cc(N2CCN(CCO)CC2)n1 [Dasatinib] (partner 0.075 µM)
Outline: as §1

Cell Line | relative viability (BGJ398 + Tozasertib; first compound 0.01 µM) | relative viability (BGJ398 + Tozasertib; first compound 0.03162 µM) | relative viability (BGJ398 + Tozasertib; first compound 0.1 µM) | relative viability (BGJ398 + Tozasertib; first compound 0.3162 µM) | relative viability (BGJ398 + Tozasertib; first compound 1 µM) | relative viability (BGJ398 + Bortezomib; first compound 0.01 µM) | relative viability (BGJ398 + Bortezomib; first compound 0.03162 µM) | relative viability (BGJ398 + Bortezomib; first compound 0.1 µM) | relative viability (BGJ398 + Bortezomib; first compound 0.3162 µM) | relative viability (BGJ398 + Bortezomib; first compound 1 µM) | relative viability (BGJ398 + Pemetrexed; first compound 0.01 µM) | relative viability (BGJ398 + Pemetrexed; first compound 0.03162 µM) | relative viability (BGJ398 + Pemetrexed; first compound 0.1 µM) | relative viability (BGJ398 + Pemetrexed; first compound 0.3162 µM) | relative viability (BGJ398 + Pemetrexed; first compound 1 µM) | relative viability ([1]; first compound 0.02 µM) | relative viability ([1]; first compound 0.06325 µM) | relative viability ([1]; first compound 0.2 µM) | relative viability ([1]; first compound 0.6325 µM) | relative viability ([1]; first compound 2 µM)
NCI-H1993 | 0.526 | 0.546 | 0.651 | 0.581 | 0.616 | 1.17 | 0.753 | 1.2 | 1.23 | 1.19 | 0.559 | 0.543 | 0.575 | 0.572 | 0.549 | 0.516 | 0.592 | 0.667 | 0.581 | 0.521
NCI-H2009 | 0.732 | 0.761 | 0.733 | 0.734 | 0.697 | 0.918 | 1.09 | 0.955 | 0.978 | 1.14 | 1.02 | 1.04 | 1.04 | 1.11 | 1.09 | 0.312 | 0.31 | 0.358 | 0.272 | 0.175
NCI-H2023 | 0.309 | 0.345 | 0.301 | 0.232 | 0.255 | 0.966 | 1.07 | 0.978 | 0.883 | 1.12 | 0.279 | 0.227 | 0.248 | 0.252 | 0.242 | 0.5 | 0.55 | 0.582 | 0.446 | 0.246
NCI-H2085 | 0.961 | 0.877 | 0.74 | 0.732 | 0.669 | 1.02 | 1.07 | 1.02 | 0.983 | 1.15 | 0.927 | 0.845 | 0.885 | 0.978 | 1.04 | 0.226 | 0.212 | 0.248 | 0.257 | 0.213
NCI-H2087 | 0.219 | 0.255 | 0.24 | 0.26 | 0.277 | 0.725 | 0.699 | 0.806 | 0.848 | 0.602 | 0.644 | 0.606 | 0.671 | 0.699 | 0.678 | 0.761 | 0.713 | 0.911 | 0.857 | 0.507
NCI-H2126 | 0.892 | 0.825 | 0.911 | 0.927 | 0.868 | 1.14 | 1.1 | 1.11 | 1.11 | 1.12 | 0.724 | 0.717 | 0.689 | 0.674 | 0.684 | 0.499 | 0.625 | 0.614 | 0.629 | 0.266
NCI-H2228 | 0.235 | 0.255 | 0.224 | 0.188 | 0.204 | 1.34 | 1.08 | 0.782 | 0.942 | 0.925 | 0.312 | 0.367 | 0.377 | 0.342 | 0.299 | 0.414 | 0.448 | 0.47 | 0.389 | 0.388
NCI-H2347 | 0.698 | 0.575 | 0.515 | 0.621 | 0.567 | 0.737 | 0.835 | 0.9 | 0.88 | 0.784 | 0.4 | 0.462 | 0.427 | 0.43 | 0.375 | 0.318 | 0.26 | 0.306 | 0.304 | 0.293
